The target of the experiment is T1, RORγt (Homo sapiens, UniProt P51449).
T1 construct: […]
T1 sequence (P51449 269-508 limits assumed): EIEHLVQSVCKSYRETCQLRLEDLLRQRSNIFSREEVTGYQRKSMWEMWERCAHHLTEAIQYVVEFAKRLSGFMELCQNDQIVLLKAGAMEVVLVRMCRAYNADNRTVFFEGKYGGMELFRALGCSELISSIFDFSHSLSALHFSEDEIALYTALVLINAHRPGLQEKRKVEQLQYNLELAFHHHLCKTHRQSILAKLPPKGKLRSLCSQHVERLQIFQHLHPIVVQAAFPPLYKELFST
In words: Fluorescence resonance energy transfer (FRET) test, inhibitory activity of RORγt. It is filed as biochemical. To be noted: FRET, B-RORγt LBD / Biotin-SRC1; read-out: IC50.

For orientation: IC50 means the concentration needed to halve the response being measured. In the case of `CS(=O)(=O)c1ccc([C@H](CC#N)NC(=O)c2ccc(N3C[C@@H](Oc4ccc(C(F)(F)F)cc4)C[C@H]3COC(F)F)cc2)cc1` [Example 62, N-((S)-2-cyano-1-(4-(methylsulfonyl)phenyl)ethyl)-4-((2S,4S)-2-((difluoromethoxy)methyl)-4-(4-(trifluoromethyl)phenoxy)pyrrolidin-1-yl)benzamide], the IC50 came to 22 nM.

As to `CCS(=O)(=O)c1ccc([C@H](CC#N)NC(=O)c2ccc(N3CC(Oc4ccc(C(F)(F)F)cc4)C[C@H]3COC(F)F)cc2)nc1` (stereo in doubt) [Example 49, N-((S)-2-cyano-1-(5-(ethylsulfonyl)pyridin-2-yl)ethyl)-4-((2S,4S)-2-((difluoromethoxy)methyl)-4-(4-(trifluoromethyl)phenoxy)pyrrolidin-1-yl)benzamide], the 50% inhibitory concentration (IC50) is 28 nM. The same measure for `CCS(=O)(=O)c1ccc([C@H](CC#N)NC(=O)c2ccc(N3C[C@@H](Oc4ccc(N)cc4)C[C@H]3COC(F)F)cc2)cc1` [Example 7, 4-((2S,4S)-4-(4-aminophenoxy)-2-((difluoromethoxy)methyl)pyrrolidin-1-yl)-N-((S)-2-cyano-1-(4-(ethylsulfonyl)phenyl)ethyl)benzamide]: 57.5 nM; for `CCS(=O)(=O)c1ccc([C@H](CC#N)NC(=O)c2ccc(N3C[C@@H](Oc4ccc(OC(F)F)cc4)C[C@H]3COC(F)F)cc2)nc1` [Example 13, N-((S)-2-cyano-1-(5-(ethylsulfonyl)pyridin-2-yl)ethyl)-4-((2S,4S)-2-((difluoromethoxy)methyl)-4-(4-(difluoromethoxy)phenoxy)pyrrolidin-1-yl)benzamide]: 31.4 nM. Consider `CCS(=O)(=O)c1ccc([C@H](CC#N)NC(=O)c2ccc(N3C[C@H](N(C)CC4CCC(F)(F)CC4)C[C@H]3COC(F)F)cc2)cc1` [Example 32], for which the IC50 is 61.1 nM. The figure for `CCS(=O)(=O)c1ccc([C@H](CC#N)NC(=O)c2ccc(N3C[C@@H](Oc4ccc(C#N)cc4)C[C@H]3COC(F)F)cc2)cc1` [Example 24, N-((S)-2-cyano-1-(4-(ethylsulfonyl)phenyl)ethyl)-4-((2S,4S)-4-(4-cyanophenoxy)-2-((difluoromethoxy)methyl)pyrrolidin-1-yl)benzamide] is 19 nM; for `CCS(=O)(=O)c1ccc([C@H](COC(=O)NC)NC(=O)c2ccc(N3C[C@@H](Oc4ccc(C(F)(F)F)cc4)C[C@H]3COC(F)F)cc2)cc1` [Example 150, (R)-2-(4-((2S,4S)-2-((difluoromethoxy)methyl)-4-(4-(trifluoromethyl)phenoxy)pyrrolidin-1-yl)benzoylamino)-2-(4-(ethylsulfonyl)phenyl)ethyl methylcarbamate] it is 10 nM; for `CCS(=O)(=O)c1ccc([C@H](CC#N)NC(=O)c2ccc(N3C[C@@H](Oc4ccc(OC)cn4)C[C@H]3COC(F)F)cc2)cc1` [Example 41, N—((S)-2-cyano-1-(4-(ethylsulfonyl)phenyl)ethyl)-4-((2S,4S)-2-((difluoromethoxy)methyl)-4-((5-methoxypyridin-2-yl)oxy)pyrrolidin-1-yl)benzamide] it is 17 nM. In the case of `CCS(=O)(=O)c1ccc([C@@H](CC#N)NC(=O)c2ccc(N3CC(Oc4ccc(C(F)(F)F)cc4)C[C@H]3COC(F)F)cc2)cc1` (stereo in doubt) [Example 48, N-((R)-2-cyano-1-(4-(ethylsulfonyl)phenyl)ethyl)-4-((2S,4S)-2-((difluoromethoxy)methyl)-4-(4-(trifluoromethyl)phenoxy)pyrrolidin-1-yl)benzamide], the concentration for half-maximal inhibition (IC50) came to 8 nM. The same measure for `CCS(=O)(=O)c1ccc([C@@H](NC(=O)c2ccc(N3C[C@@H](Oc4ccc(C(F)(F)F)cc4)C[C@H]3COC(F)F)cc2)C(=O)O)cc1` [Example 102, (R)-2-(4-((2S,4S)-2-((difluoromethoxy)methyl)-4-(4-(trifluoromethyl)phenoxy)pyrrolidin-1-yl)benzoylamino)-2-(4-(ethylsulfonyl)phenyl)acetic Acid]: 4 nM; for `CCS(=O)(=O)c1ccc([C@H](CNC(=O)OC)NC(=O)c2ccc(N3C[C@@H](Oc4ccc(C(F)(F)F)cc4)C[C@H]3COC(F)F)cc2)cc1` [Example 147, methyl ((R)-2-(4-((2S,4S)-2-((difluoromethoxy)methyl)-4-(4-(trifluoromethyl)phenoxy)pyrrolidin-1-yl)benzoylamino)-2-(4-(ethylsulfonyl)phenyl)ethyl)carbamate]: 18.2 nM. The figure for `CCS(=O)(=O)c1ccc([C@H](CC#N)NC(=O)c2ccc(N3C[C@H](N4CCC(C(F)(F)F)CC4)CC[C@H]3COC(F)F)cc2)cc1` [Example 117-2, N—((S)-2-cyano-1-(4-(ethylsulfonyl)phenyl)ethyl)-4-((3′R,6′S)-6′-((difluoromethoxy)methyl)-4-(trifluoromethyl)-(1,3′-bipiperidin)-1′-yl)benzamide] is 26 nM. The same measure for `CCS(=O)(=O)c1ccc([C@H](CC#N)NC(=O)c2ccc(N3C[C@@H](Oc4ccc(C(F)(F)F)cc4)C[C@H]3CCOC(F)(F)F)cc2)cc1` [Example 76, N—((S)-2-cyano-1-(4-(ethylsulfonyl)phenyl)ethyl)-4-((2R,4S)-2-(2-(trifluoromethoxy)ethyl)-4-(4-(trifluoromethyl)phenoxy)pyrrolidin-1-yl)benzamide]: 18 nM. Take `CCS(=O)(=O)c1ccc([C@H](CC#N)NC(=O)c2ccc(N3C[C@@H](Oc4ccc(C)nc4)C[C@H]3COC(F)F)cc2)cc1` [Example 15, N-((S)-2-cyano-1-(4-(ethylsulfonyl)phenyl)ethyl)-4-((2S,4S)-2-((difluoromethoxy)methyl)-4-((6-methylpyridin-3-yl)oxy)pyrrolidin-1-yl)benzamide]: the concentration for half-maximal inhibition (IC50) turned out to be 78.7 nM. The same measure for `CCS(=O)(=O)c1ccc([C@H](CC#N)NC(=O)c2ccc(N3C[C@H](c4ccccc4)CC[C@H]3COC(F)F)cc2)cc1` [Example 115-2, N—((S)-2-cyano-1-(4-(ethylsulfonyl)phenyl)ethyl)-4-((2S,5S)-2-((difluoromethoxy)methyl)-5-phenylpiperidin-1-yl)benzamide]: 26 nM; for `CCS(=O)(=O)c1ccc([C@H](CCC#N)NC(=O)c2ccc(N3CC(Oc4ccc(C(F)(F)F)cc4)C[C@H]3COC(F)F)cc2)cc1` (stereo in doubt) [Example 51, N-((S)-3-cyano-1-(4-(ethylsulfonyl)phenyl)propyl)-4-((2S,4S)-2-((difluoromethoxy)methyl)-4-(4-(trifluoromethyl)phenoxy)pyrrolidin-1-yl)benzamide]: 14 nM; for `CCS(=O)(=O)c1ccc([C@H](CC#N)NC(=O)c2ccc(N3CCC(Oc4ccc(C(F)(F)F)cc4)C3)c(F)c2)cc1` (stereo in doubt) [Example 83, N-((S)-2-cyano-1-(4-(ethylsulfonyl)phenyl)ethyl)-3-fluoro-4-((S)-3-(4-(trifluoromethyl)phenoxy)pyrrolidin-1-yl)benzamide]: 91 nM. The same measure for `CCS(=O)(=O)c1ccc([C@H](COC(N)=O)NC(=O)c2ccc(N3C[C@@H](Oc4ccc(Cl)cn4)C[C@H]3COC(F)F)nc2)cc1` [Example 183, (R)-2-(6-((2S,4S)-4-((5-chloropyridin-2-yl)oxy)-2-((difluoromethoxy)methyl)pyrrolidin-1-yl)nicotinamido)-2-(4-(ethylsulfonyl)phenyl)ethyl carbamate]: 10 nM.

The values are drawn from patent US20230121086A1, “RORgT INHIBITOR, PREPARATION METHOD THEREOF AND USE THEREOF” (SUNSHINE LAKE PHARMA CO., LTD., priority 2020, published 2023).
